Measurements: patent US12403184B2, “Compositions and methods for treating neurodegenerative disroders” (priority 2018, dated 2025)
Where no end group is shown, it is not given here.

Key:
GST-Drp1 and ATAD3A-Flag = target: T1, GST-Drp1 and ATAD3A-Flag (Homo sapiens, UniProt Q9NVI7); assay: GST pulldown assay, in vitro binding of GST-Drp1 and ATAD3A-Flag; details: GST pull down, peptide 60 μM
T1 construct: Abnova for GST-Drp1 L1170 (TNT kit); no catalogue number printed for GST-Drp1; host or cells: cell-free coupled transcription/translation (ATAD3A-Flag); GST-Drp1 purchased
T1 sequence (Q9NVI7 1-586): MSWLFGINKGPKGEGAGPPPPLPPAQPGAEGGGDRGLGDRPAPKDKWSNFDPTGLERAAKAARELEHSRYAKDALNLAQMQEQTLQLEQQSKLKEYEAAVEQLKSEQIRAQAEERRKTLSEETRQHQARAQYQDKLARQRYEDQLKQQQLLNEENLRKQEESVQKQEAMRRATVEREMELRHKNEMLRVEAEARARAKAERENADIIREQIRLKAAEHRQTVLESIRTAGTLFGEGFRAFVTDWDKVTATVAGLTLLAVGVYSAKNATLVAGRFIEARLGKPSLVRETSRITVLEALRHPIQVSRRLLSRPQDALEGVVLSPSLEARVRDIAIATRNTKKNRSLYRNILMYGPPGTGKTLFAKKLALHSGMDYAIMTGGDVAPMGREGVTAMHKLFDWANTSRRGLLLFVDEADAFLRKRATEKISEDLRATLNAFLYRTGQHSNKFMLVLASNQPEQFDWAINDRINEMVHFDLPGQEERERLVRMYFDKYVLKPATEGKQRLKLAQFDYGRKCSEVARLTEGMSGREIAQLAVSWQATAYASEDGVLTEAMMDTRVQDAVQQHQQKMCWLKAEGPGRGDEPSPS
Source text: Using pcDNA3.1 (+)-ATAD3A-Flag plasmid as template, ATAD3A-Flag protein was synthesized by TNT® Quick Coupled Transcription/Translation System (Promega, Cat #L1170) followed by protein purification with Flag-peptide (Sigma, F3290). The expression of ATAD3A protein was confirmed by western blot analysis with both anti-ATAD3A and anti-Flag antibodies. This approach provides convenient single-tube, coupled transcription/translation reactions for eukaryotic cell-free protein expression and has been used to detect direct protein-protein interaction.
GST-Drp1 or GST control protein were incubated with Glutathione-beads in TBST buffer at r.t. After 1 h of incubation, ATAD3A-Flag protein was added, and thoroughly mixed in vibrating mixer for 30 mins at r.t., then transferred to 4° C. for overnight incubation Immunoprecipitates were then washed for three time and analyzed by SDS-PAGE.
To test the inhibitory function of DA1 peptide on in vitro binding between GST-Drp1 and ATAD3A-Flag, DA1 peptide or control peptide TAT (60 μM, each) was incubated with ATAD3A-Flag protein before mixing with GST-Drp1-glutathione beads complex.

[1] = tested on: neurons derived from HD patient-iPS cells; assay: Mitochondrial and neuronal morphology in neurons derived from iPS cells; assay type: cell-based, human
Description: iPS cells from a normal subject and a HD patient (carrying 41 CAG repeats) were differentiated into neurons using the protocol from our previous studies. Briefly, the iPS cells were plated onto 6-well plates precoated with 2.5% Matrigel and allowed to reach 90% confluence in feeder-free medium. For the first 10 days, the cells were treated with SB431542 (10 μM; Tocris Bioscience) and Noggin (100 ng/ml) in Neural Media (NM) containing Neurobasal and DMEM (1:1), B-27 supplement minus vitamin A (50×, Invitrogen), N2 supplement (100×, Invitrogen), GlutaMax (Invitrogen, 100×), FGF2 ([…]) and EGF ([…]), and 100 units/ml penicillin and 100 μg/ml streptomycin). For the next 10 days, the cells were treated with human recombinant Sonic hedgehog (SHH, 200 ng/ml), DKK1 (100 ng/ml) and BDNF (20 ng/ml), and 10 μM Y27632 (Sigma) in neuronal differentiation medium containing Neurobasal and DMEM (1:3), B27, N2, GlutaMax, and PS. Cells were then switched to treatment with BDNF (20 ng/ml), ascorbic acid (200 μM, Sigma-Aldrich), cAMP (0.5 mM, Sigma-Aldrich), and Y27632 (10 μM) in neuronal differentiation medium. All growth factors were purchased from PeproTech (Rocky Hill, NJ, USA). Twenty days after the initiation of differentiation, the neurons (about 5000 cells) were plated onto 12-mm poly-Dlysine/laminine-coated coverslips and grown in 24-well plates in neuronal differentiation medium.
Neurons derived from iPS cells were stained with anti-Tom20 (a mitochondrial marker) and anti-GAD67 (a striatal neuronal marker). Quantitation of mitochondrial length along the neurites was conducted only in the neurons immuno-positive for GAD67. To analyze dendrite and axon outgrowth of neurons, cells were stained with anti-MAP2 (a dendritic marker) and anti-GAD67 or anti-Tau (an axonal marker) and anti-DARPP32 (a medium spiny neuron marker). The length of MAP2+ dendrite and Tau+ axon in the neurons immuno-positive for GAD67 or DARPP32 was quantitated, respectively. At least 50 neurons/group were counted.

YAC128 mice = assay: Locomotion activity in YAC128 mice; assay type: in vivo, mouse; details: 1 mg/kg/day from 3 to 12 months, effect from 6 until 12 months of age
Source text: YAC128 [FVB-Tg(YAC128)53Hay/J, JAX stock number: 004938] breeders (FVB/N genetic background) were purchased from Jackson Laboratories. The YAC128 mice contain a full-length human huntingtin gene modified with a 128 CAG repeat expansion in exon 1. The mice were mated, bred, and genotyped in the animal facility of Case Western Reserve University. Male mice at the ages of 2, 3, 6, 9, and 12 months were used in the study.
Systemic peptide treatment in HD mice. All randomization and peptide treatments were prepared by an experimenter not associated with behavioral and neuropathology analysis. Male R6/2 mice (Tg) and their age-matched wild-type littermates (Wt) (6-week-old) were implanted with a 28-day osmotic pump (Alzet, Cupertino CA, Model 2004) containing TAT control peptide or DA1 peptide, which delivered peptides at a rate of 1 mg/kg/day. Male YAC128 mice (Tg) and their age-matched wild-type littermates (WT) were treated with TAT control peptide or DA1 peptide (1 mg/kg/day) by Alzet osmotic pump starting from the age of 3 months. The pump was replaced once every month.
Gross locomotor activity was assessed in R6/2 mice and age-matched wild-type littermates at the ages of 12 weeks, and in YAC128 mice and age-matched wildtype littermates at the ages of 2, 3, 6, 9, and 12 months. […] Distance moved, horizontal and vertical activities were recorded. […]

[2] = striatal neurons derived from HD patient iPS cells

Substance: YGRKKRRQRRRGGEDKRKT-NH2 [DA1, YGRKKRRQRRR-GG-EDKRKT-NH2]
- binding of GST-Drp1 and ATAD3A-Flag in vitro (GST-Drp1 and ATAD3A-Flag): abolished
- mitochondrial morphology ([1]; cells derived from iPS cells of normal subject): no observed effects
- length of mitochondria along the neurites of GAD67+-neurons ([1]; neurons derived from HD patient-iPS cells): increased
- MAP2+ dendritic outgrowth [1, 2]: improved
- Tau+ axonal outgrowth [1, 2]: improved
- general movement activity (YAC128 mice): improved
